Reference: US20240360082A1, “SUBSTITUTED PYRIDONE COMPOUNDS USEFUL TO TREAT ORTH[…]” (priority 2021, published 2024)
Read-outs that look alike come from different tables or passages of the source.

Molecular target: influenza A virus minigenome (PB2, PB1, PA, NP proteins) (UniProt P04665)
Type: cell-based

influenza A virus minigenome (PB2, PB1, PA, NP proteins), sequence (P04665 whole entry): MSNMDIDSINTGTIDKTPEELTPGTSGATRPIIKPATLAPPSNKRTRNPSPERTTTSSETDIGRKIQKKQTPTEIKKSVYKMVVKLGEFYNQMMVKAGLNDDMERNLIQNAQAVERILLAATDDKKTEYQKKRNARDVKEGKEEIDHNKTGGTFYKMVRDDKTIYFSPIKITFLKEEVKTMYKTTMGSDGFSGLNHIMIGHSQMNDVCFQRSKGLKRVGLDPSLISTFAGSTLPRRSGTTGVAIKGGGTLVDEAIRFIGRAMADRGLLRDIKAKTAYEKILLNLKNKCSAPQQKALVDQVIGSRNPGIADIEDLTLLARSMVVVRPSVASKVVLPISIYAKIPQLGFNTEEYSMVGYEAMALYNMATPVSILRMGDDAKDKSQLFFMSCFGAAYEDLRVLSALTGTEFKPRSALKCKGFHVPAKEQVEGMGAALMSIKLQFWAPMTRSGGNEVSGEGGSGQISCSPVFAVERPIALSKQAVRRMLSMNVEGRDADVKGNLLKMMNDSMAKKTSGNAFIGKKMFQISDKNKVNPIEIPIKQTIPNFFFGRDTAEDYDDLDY

SMILES: NC(=O)c1cc(-c2ccc(OCC3COCC(F)(F)C3)cc2)c(C(F)(F)F)[nH]c1=O (single isomer, unassigned) [Example 336, 5-(4-((5,5-difluorotetrahydro-2H-pyran-3-yl)methoxy)phenyl)-2-oxo-6-(trifluoromethyl)-1,2-dihydropyridine-3-carboxamide]
- IC50 (read-out: RNP_ Hubei B IC50): 5 to 10 µM

SMILES: NC(=O)c1cc(-c2ccc(OCC3COCC(F)(F)C3)cc2)c(C(F)(F)F)[nH]c1=O (single isomer, unassigned) [Example 337, 5-(4-((5,5-difluorotetrahydro-2H-pyran-3-yl)methoxy)phenyl)-2-oxo-6-(trifluoromethyl)-1,2-dihydropyridine-3-carboxamide]
- IC50 (read-out: RNP_ Hubei B IC50): 5 to 10 µM

SMILES: NC(=O)c1cc(-c2ccc(OCC3COC(CF)CO3)cc2)c(C(F)(F)F)[nH]c1=O (single isomer, unassigned) [Example 340, 5-(4-((5-(fluoromethyl)-1,4-dioxan-2-yl)methoxy)phenyl)-2-oxo-6-(trifluoromethyl)-1,2-dihydropyridine-3-carboxamide]
- IC50 (read-out: RNP_ Hubei B IC50): 5 to 10 µM

SMILES: NC(=O)c1cc(-c2ccc(OCC3COC(CF)CO3)cc2)c(C(F)(F)F)[nH]c1=O (single isomer, unassigned) [Example 341, 5-(4-((5-(fluoromethyl)-1,4-dioxan-2-yl)methoxy)phenyl)-2-oxo-6-(trifluoromethyl)-1,2-dihydropyridine-3-carboxamide]
- IC50 (read-out: RNP_ Hubei B IC50): 5 to 10 µM

SMILES: NC(=O)c1cc(-c2ccc(OCC3COC(CF)CO3)cc2)c(C(F)(F)F)[nH]c1=O (single isomer, unassigned) [Example 342, 5-(4-((5-(fluoromethyl)-1,4-dioxan-2-yl)methoxy)phenyl)-2-oxo-6-(trifluoromethyl)-1,2-dihydropyridine-3-carboxamide]
- IC50 (read-out: RNP_ Hubei B IC50): 5 to 10 µM

SMILES: NC(=O)c1cc(-c2ccc(OCC3COC(CF)CO3)cc2)c(C(F)(F)F)[nH]c1=O (single isomer, unassigned) [Example 343, 5-(4-((5-(fluoromethyl)-1,4-dioxan-2-yl)methoxy)phenyl)-2-oxo-6-(trifluoromethyl)-1,2-dihydropyridine-3-carboxamide]
- IC50 (read-out: RNP_ Hubei B IC50): 5 to 10 µM

SMILES: NC(=O)c1cc(-c2ccc(OCC3COC(C(F)F)CO3)cc2)c(C(F)(F)F)[nH]c1=O (single isomer, unassigned) [Example 344, 5-(4-((5-(difluoromethyl)-1,4-dioxan-2-yl)methoxy)phenyl)-2-oxo-6-(trifluoromethyl)-1,2-dihydropyridine-3-carboxamide]
- IC50 (read-out: RNP_ Hubei B IC50): 5 to 10 µM

SMILES: NC(=O)c1cc(-c2ccc(OCC3COC(C(F)F)CO3)cc2)c(C(F)(F)F)[nH]c1=O (single isomer, unassigned) [Example 345, 5-(4-((5-(difluoromethyl)-1,4-dioxan-2-yl)methoxy)phenyl)-2-oxo-6-(trifluoromethyl)-1,2-dihydropyridine-3-carboxamide]
- IC50 (read-out: RNP_ Hubei B IC50): 5 to 10 µM

SMILES: NC(=O)c1cc(-c2ccc(OCC3COC(C(F)F)CO3)cc2)c(C(F)(F)F)[nH]c1=O (single isomer, unassigned) [Example 346, 5-(4-((5-(difluoromethyl)-1,4-dioxan-2-yl)methoxy)phenyl)-2-oxo-6-(trifluoromethyl)-1,2-dihydropyridine-3-carboxamide]
- IC50 (read-out: RNP_ Hubei B IC50): 5 to 10 µM

SMILES: NC(=O)c1cc(-c2ccc(OCC3COC(C(F)F)CO3)cc2)c(C(F)(F)F)[nH]c1=O (single isomer, unassigned) [Example 347, 5-(4-((5-(difluoromethyl)-1,4-dioxan-2-yl)methoxy)phenyl)-2-oxo-6-(trifluoromethyl)-1,2-dihydropyridine-3-carboxamide]
- IC50 (read-out: RNP_ Hubei B IC50): 5 to 10 µM

SMILES: NC(=O)c1cc(-c2ccc(OCC3COCC(C(F)F)O3)cc2)c(C(F)(F)F)[nH]c1=O (single isomer, unassigned) [Example 348, 5-(4-((6-(difluoromethyl)-1,4-dioxan-2-yl)methoxy)phenyl)-2-oxo-6-(trifluoromethyl)-1,2-dihydropyridine-3-carboxamide]
- IC50 (read-out: RNP_Hubei B): 5 to 10 µM

SMILES: NC(=O)c1cc(-c2ccc(OCC3COCC(C(F)F)O3)cc2)c(C(F)(F)F)[nH]c1=O (single isomer, unassigned) [Example 349, 5-(4-((6-(difluoromethyl)-1,4-dioxan-2-yl)methoxy)phenyl)-2-oxo-6-(trifluoromethyl)-1,2-dihydropyridine-3-carboxamide]
- IC50 (read-out: RNP_ Hubei B IC50): 5 to 10 µM

SMILES: COC1(C2COCC(COc3ccc(-c4cc(C(N)=O)c(=O)[nH]c4C(F)(F)F)cc3)O2)CC1 (single isomer, unassigned) [Example 353, 5-(4-((6-(1-methoxycyclopropyl)-1,4-dioxan-2-yl)methoxy)phenyl)-2-oxo-6-(trifluoromethyl)-1,2-dihydropyridine-3-carboxamide]
- IC50 (read-out: RNP_ Hubei B IC50): 5 to 10 µM

SMILES: CC(C)(O)C1COCC(COc2ccc(-c3cc(C(N)=O)c(=O)[nH]c3C(F)(F)F)cc2)O1 (single isomer, unassigned) [Example 354, 5-(4-((6-(2-hydroxypropan-2-yl)-1,4-dioxan-2-yl)methoxy)phenyl)-2-oxo-6-(trifluoromethyl)-1,2-dihydropyridine-3-carboxamide]
- IC50 (read-out: RNP_ Hubei B IC50): 5 to 10 µM

SMILES: CC(C)(O)C1COCC(COc2ccc(-c3cc(C(N)=O)c(=O)[nH]c3C(F)(F)F)cc2)O1 (single isomer, unassigned) [Example 355, 5-(4-((6-(2-hydroxypropan-2-yl)-1,4-dioxan-2-yl)methoxy)phenyl)-2-oxo-6-(trifluoromethyl)-1,2-dihydropyridine-3-carboxamide]
- IC50 (read-out: RNP_ Hubei B IC50): 5 to 10 µM

SMILES: CC1(C2COCC(COc3ccc(-c4cc(C(N)=O)c(=O)[nH]c4C(F)(F)F)cc3)O2)CC1 (single isomer, unassigned) [Example 356, 5-(4-((6-(1-methylcyclopropyl)-1,4-dioxan-2-yl)methoxy)phenyl)-2-oxo-6-(trifluoromethyl)-1,2-dihydropyridine-3-carboxamide]
- IC50 (read-out: RNP_ Hubei B IC50): 5 to 10 µM

SMILES: CC1(C2COCC(COc3ccc(-c4cc(C(N)=O)c(=O)[nH]c4C(F)(F)F)cc3)O2)CC1 (single isomer, unassigned) [Example 357, 5-(4-((6-(1-methylcyclopropyl)-1,4-dioxan-2-yl)methoxy)phenyl)-2-oxo-6-(trifluoromethyl)-1,2-dihydropyridine-3-carboxamide]
- IC50 (read-out: RNP_Hubei B): 5 to 10 µM

SMILES: CC(F)(F)C1COCC(COc2ccc(-c3cc(C(N)=O)c(=O)[nH]c3C(F)(F)F)cc2)O1 (single isomer, unassigned) [Example 358, 5-(4-((6-(1,1-difluoroethyl)-1,4-dioxan-2-yl)methoxy)phenyl)-2-oxo-6-(trifluoromethyl)-1,2-dihydropyridine-3-carboxamide]
- IC50 (read-out: RNP_ Hubei B IC50): 5 to 10 µM

SMILES: CC(F)(F)C1COCC(COc2ccc(-c3cc(C(N)=O)c(=O)[nH]c3C(F)(F)F)cc2)O1 (single isomer, unassigned) [Example 359, 5-(4-((6-(1,1-difluoroethyl)-1,4-dioxan-2-yl)methoxy)phenyl)-2-oxo-6-(trifluoromethyl)-1,2-dihydropyridine-3-carboxamide]
- IC50 (read-out: RNP_ Hubei B IC50): 5 to 10 µM

SMILES: CCOCC1COCC(COc2ccc(-c3cc(C(N)=O)c(=O)[nH]c3C(F)(F)F)cc2)O1 (single isomer, unassigned) [Example 360, 5-(4-((6-(ethoxymethyl)-1,4-dioxan-2-yl)methoxy)phenyl)-2-oxo-6-(trifluoromethyl)-1,2-dihydropyridine-3-carboxamide]
- IC50 (read-out: RNP_Hubei B): 5 to 10 µM

SMILES: CCOCC1COCC(COc2ccc(-c3cc(C(N)=O)c(=O)[nH]c3C(F)(F)F)cc2)O1 (single isomer, unassigned) [Example 361, 5-(4-((6-(ethoxymethyl)-1,4-dioxan-2-yl)methoxy)phenyl)-2-oxo-6-(trifluoromethyl)-1,2-dihydropyridine-3-carboxamide]
- IC50 (read-out: RNP_ Hubei B IC50): 5 to 10 µM

SMILES: NC(=O)c1cc(-c2ccc(OCC3COCC(COCC4CC4)O3)cc2)c(C(F)(F)F)[nH]c1=O (single isomer, unassigned) [Example 362, 5-(4-((6-((cyclopropylmethoxy)methyl)-1,4-dioxan-2-yl)methoxy)phenyl)-2-oxo-6-(trifluoromethyl)-1,2-dihydropyridine-3-carboxamide]
- IC50 (read-out: RNP_ Hubei B IC50): 5 to 10 µM

SMILES: NC(=O)c1cc(-c2ccc(OCC3COCC(COCC4CC4)O3)cc2)c(C(F)(F)F)[nH]c1=O (single isomer, unassigned) [Example 363, 5-(4-((6-((cyclopropylmethoxy)methyl)-1,4-dioxan-2-yl)methoxy)phenyl)-2-oxo-6-(trifluoromethyl)-1,2-dihydropyridine-3-carboxamide]
- IC50 (read-out: RNP_ Hubei B IC50): 5 to 10 µM

SMILES: NC(=O)c1cc(-c2ccc(OCC3COCC(COCC4(F)CC4)O3)cc2)c(C(F)(F)F)[nH]c1=O (single isomer, unassigned) [Example 364, 5-(4-((6-(((1-fluorocyclopropyl)methoxy)methyl)-1,4-dioxan-2-yl)methoxy)phenyl)-2-oxo-6-(trifluoromethyl)-1,2-dihydropyridine-3-carboxamide]
- IC50 (read-out: RNP_ Hubei B IC50): 5 to 10 µM

SMILES: NC(=O)c1cc(-c2ccc(OCC3COCC(COCC4(F)CC4)O3)cc2)c(C(F)(F)F)[nH]c1=O (single isomer, unassigned) [Example 365, 5-(4-((6-(((1-fluorocyclopropyl)methoxy)methyl)-1,4-dioxan-2-yl)methoxy)phenyl)-2-oxo-6-(trifluoromethyl)-1,2-dihydropyridine-3-carboxamide]
- IC50 (read-out: RNP_ Hubei B IC50): 5 to 10 µM

SMILES: NC(=O)c1cc(-c2ccc(OCC3COCC(COC4CC(F)(F)C4)O3)cc2)c(C(F)(F)F)[nH]c1=O (single isomer, unassigned) [Example 366, 5-(4-((6-((3,3-difluorocyclobutoxy)methyl)-1,4-dioxan-2-yl)methoxy)phenyl)-2-oxo-6-(trifluoromethyl)-1,2-dihydropyridine-3-carboxamide]
- IC50 (read-out: RNP_ Hubei B IC50): 5 to 10 µM

SMILES: NC(=O)c1cc(-c2ccc(OCC3COCC(COC4CC(F)(F)C4)O3)cc2)c(C(F)(F)F)[nH]c1=O (single isomer, unassigned) [Example 367, 5-(4-((6-((3,3-difluorocyclobutoxy)methyl)-1,4-dioxan-2-yl)methoxy)phenyl)-2-oxo-6-(trifluoromethyl)-1,2-dihydropyridine-3-carboxamide]
- IC50 (read-out: RNP_ Hubei B IC50): 5 to 10 µM

SMILES: NC(=O)c1cc(-c2ccc(OCC3COCC(COCC(F)F)O3)cc2)c(C(F)(F)F)[nH]c1=O (single isomer, unassigned) [Example 368, 5-(4-((6-((2,2-difluoroethoxy)methyl)-1,4-dioxan-2-yl)methoxy)phenyl)-2-oxo-6-(trifluoromethyl)-1,2-dihydropyridine-3-carboxamide]
- IC50 (read-out: RNP_ Hubei B IC50): 5 to 10 µM
